The results in this text go back to ChEMBL document CHEMBL1909046, “DrugMatrix in vitro pharmacology data”.

Data set [1] addresses Prostaglandin G/H synthase 1 (Homo sapiens, UniProt P23219). The experiment in a line: biochemical. Type of data set: tissue-based, Platelet. As to conditions: platelet.
Data set [2] has as its target Protein phosphatase 3 catalytic subunit alpha (Homo sapiens, UniProt Q08209). Further details: species or system Escherichia coli.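 Note: inhibition of calcineurin (PP2B) enzyme activity, measured with DiFMUP as the substrate; in other assays of this panel Not Active means under 50% inhibition at 10 µM.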
The target of data set [3] is T1, Alpha-2A adrenergic receptor (Homo sapiens, UniProt P08913). Note: in other assays of this panel Not Active means under 50% inhibition at 10 µM.
T1 sequence (P08913 whole entry): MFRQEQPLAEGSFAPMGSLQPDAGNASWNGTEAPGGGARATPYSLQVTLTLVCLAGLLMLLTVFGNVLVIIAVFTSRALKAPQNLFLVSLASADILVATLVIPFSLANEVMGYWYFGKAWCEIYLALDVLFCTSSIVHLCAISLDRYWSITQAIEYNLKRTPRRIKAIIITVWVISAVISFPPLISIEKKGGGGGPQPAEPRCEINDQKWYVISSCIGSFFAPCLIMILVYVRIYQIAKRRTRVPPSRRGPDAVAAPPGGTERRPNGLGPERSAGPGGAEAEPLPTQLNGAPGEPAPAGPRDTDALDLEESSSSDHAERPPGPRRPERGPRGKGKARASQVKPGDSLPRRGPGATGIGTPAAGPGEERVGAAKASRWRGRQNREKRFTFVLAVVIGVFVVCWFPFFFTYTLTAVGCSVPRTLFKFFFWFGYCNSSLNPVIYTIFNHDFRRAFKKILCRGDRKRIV
It is filed as cell membranes, Sf9, Membrane. As to conditions: sf9.

The target of data set [4] is Voltage-gated inwardly rectifying potassium channel KCNH2 (Homo sapiens, UniProt Q12809). Particulars: hek293. Note: in other assays of this panel Not Active means under 50% inhibition at 10 µM.
Chain of Voltage-gated inwardly rectifying potassium channel KCNH2 (Q12809 whole entry): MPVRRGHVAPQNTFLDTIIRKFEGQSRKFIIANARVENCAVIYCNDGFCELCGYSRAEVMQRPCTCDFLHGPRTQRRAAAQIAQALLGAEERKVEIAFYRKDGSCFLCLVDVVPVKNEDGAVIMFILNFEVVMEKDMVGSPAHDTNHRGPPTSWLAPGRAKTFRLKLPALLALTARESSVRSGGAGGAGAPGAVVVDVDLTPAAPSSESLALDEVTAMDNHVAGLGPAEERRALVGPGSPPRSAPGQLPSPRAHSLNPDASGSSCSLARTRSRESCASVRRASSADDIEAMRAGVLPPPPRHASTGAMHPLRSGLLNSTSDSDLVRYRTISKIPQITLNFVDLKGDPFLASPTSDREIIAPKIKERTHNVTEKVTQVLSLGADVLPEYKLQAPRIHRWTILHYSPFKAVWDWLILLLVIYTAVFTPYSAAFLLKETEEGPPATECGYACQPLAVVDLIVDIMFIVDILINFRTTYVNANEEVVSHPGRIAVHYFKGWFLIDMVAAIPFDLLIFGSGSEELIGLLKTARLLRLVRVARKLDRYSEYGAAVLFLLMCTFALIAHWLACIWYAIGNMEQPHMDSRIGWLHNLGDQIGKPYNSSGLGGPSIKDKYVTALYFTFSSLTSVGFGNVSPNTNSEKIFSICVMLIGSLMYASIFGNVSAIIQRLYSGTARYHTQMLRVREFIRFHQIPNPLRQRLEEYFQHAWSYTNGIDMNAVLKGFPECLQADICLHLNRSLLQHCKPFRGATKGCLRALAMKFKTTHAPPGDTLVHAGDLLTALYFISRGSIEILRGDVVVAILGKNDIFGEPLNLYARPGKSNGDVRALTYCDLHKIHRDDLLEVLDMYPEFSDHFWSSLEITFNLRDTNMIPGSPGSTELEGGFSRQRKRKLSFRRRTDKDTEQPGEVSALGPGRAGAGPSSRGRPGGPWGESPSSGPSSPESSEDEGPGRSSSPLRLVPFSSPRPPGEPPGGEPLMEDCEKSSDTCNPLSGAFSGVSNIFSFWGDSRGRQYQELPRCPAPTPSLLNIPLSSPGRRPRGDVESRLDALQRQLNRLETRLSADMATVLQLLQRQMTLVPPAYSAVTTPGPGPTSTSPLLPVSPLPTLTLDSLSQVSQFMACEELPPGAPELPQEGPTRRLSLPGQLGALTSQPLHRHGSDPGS
The next data set concerns the target T2, Cathepsin G (Homo sapiens, UniProt P08311).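 Note: inhibition of Cathepsin G enzyme activity, tested on an AMC-conjugated peptide substrate; in other assays of this panel Not Active means under 50% inhibition at 10 µM.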
T2 sequence (P08311 whole entry): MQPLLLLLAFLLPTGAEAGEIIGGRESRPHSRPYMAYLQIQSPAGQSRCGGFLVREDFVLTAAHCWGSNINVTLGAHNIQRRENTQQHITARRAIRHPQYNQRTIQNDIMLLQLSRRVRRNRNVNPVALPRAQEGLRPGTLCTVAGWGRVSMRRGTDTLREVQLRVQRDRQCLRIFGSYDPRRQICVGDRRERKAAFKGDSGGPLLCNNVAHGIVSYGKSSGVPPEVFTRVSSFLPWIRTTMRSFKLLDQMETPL
Type of data set: tissue-based. Particulars: neutrophil.

In data set [5] the target is Beta-1 adrenergic receptor (Homo sapiens, UniProt P08588). The experiment in a line: DRUGMATRIX: Adrenergic beta1 radioligand binding (ligand: [125I] Cyanopindolol). Type of data set: cell membranes, CHO-K1, Membrane. Particulars: cho-k1; Not Active = under 50% inhibition at 10 µM.
Chain of Beta-1 adrenergic receptor (P08588 whole entry): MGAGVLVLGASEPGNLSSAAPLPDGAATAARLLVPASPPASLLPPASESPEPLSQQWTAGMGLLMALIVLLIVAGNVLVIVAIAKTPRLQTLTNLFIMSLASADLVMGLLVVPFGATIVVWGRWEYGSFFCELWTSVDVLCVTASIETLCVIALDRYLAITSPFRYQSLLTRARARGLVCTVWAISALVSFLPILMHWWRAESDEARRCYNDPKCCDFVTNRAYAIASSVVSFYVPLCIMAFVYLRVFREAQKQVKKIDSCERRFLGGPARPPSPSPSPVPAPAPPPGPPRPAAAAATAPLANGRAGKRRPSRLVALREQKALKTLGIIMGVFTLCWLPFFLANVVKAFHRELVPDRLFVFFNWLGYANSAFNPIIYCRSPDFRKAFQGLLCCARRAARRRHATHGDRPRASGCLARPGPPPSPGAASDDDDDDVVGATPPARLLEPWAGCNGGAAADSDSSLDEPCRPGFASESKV
The target in data set [6] is T3, Polyunsaturated fatty acid lipoxygenase ALOX15 (Oryctolagus cuniculus, UniProt P12530).
T3 sequence (P12530 whole entry): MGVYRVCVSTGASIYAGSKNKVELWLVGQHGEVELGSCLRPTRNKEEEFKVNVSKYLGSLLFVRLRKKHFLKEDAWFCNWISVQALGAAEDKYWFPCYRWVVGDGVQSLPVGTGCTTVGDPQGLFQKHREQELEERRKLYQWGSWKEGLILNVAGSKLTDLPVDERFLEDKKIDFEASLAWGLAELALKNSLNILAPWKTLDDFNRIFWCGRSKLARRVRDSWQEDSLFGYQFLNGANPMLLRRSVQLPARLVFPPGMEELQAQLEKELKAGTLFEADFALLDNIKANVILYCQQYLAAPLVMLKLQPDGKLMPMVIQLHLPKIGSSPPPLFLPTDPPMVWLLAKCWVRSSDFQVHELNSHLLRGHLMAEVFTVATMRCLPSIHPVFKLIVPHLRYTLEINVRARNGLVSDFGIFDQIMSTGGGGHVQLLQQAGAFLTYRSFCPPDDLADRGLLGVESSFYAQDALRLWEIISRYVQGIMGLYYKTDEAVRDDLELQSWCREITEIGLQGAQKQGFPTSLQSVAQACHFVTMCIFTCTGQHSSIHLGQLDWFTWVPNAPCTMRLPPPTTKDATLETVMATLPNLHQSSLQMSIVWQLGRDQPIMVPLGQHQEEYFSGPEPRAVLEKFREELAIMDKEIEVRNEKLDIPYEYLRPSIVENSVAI
The experiment in a line: biochemical. It is filed as tissue-based, Reticulocytes.

Chain of Prostaglandin G/H synthase 1 (P23219 whole entry): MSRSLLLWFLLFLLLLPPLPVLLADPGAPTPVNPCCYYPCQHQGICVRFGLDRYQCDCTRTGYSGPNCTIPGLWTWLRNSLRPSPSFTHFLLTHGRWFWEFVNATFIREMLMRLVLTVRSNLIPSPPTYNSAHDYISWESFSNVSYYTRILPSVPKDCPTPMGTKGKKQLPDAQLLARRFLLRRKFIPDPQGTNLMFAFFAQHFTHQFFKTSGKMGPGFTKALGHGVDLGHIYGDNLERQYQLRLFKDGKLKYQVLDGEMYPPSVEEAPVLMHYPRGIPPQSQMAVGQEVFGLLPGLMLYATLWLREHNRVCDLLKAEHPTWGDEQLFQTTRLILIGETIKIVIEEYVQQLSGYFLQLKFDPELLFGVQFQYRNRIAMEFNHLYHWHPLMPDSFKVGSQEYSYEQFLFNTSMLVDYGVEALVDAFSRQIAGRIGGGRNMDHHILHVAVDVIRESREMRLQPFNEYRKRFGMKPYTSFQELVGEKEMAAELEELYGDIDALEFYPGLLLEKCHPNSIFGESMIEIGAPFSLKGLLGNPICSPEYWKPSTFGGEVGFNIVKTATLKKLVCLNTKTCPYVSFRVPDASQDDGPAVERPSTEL

The term IC50 denotes the concentration at which inhibition is half-maximal. Turning to `C[C@](O)(CS(=O)(=O)c1ccc(F)cc1)C(=O)Nc1ccc(C#N)c(C(F)(F)F)c1` [(R)-BICALUTAMIDE], the IC50 entry (in data set [1]; in data set [2]; in data set [3]; in data set [4]; against Cathepsin G; in data set [5]) was “Not Active” each time. Moreover, the IC50 result in data set [6] (reticulocytes) is listed as “Not Active”. For the same compound, the Ki entry in data set [4] is “Not Active”.

Take `CC(=O)Nc1ccc(O)cc1` [ACETAMINOPHEN]: the IC50 result (in data set [1]; in data set [2]; in data set [3]; in data set [4]; against Cathepsin G; in data set [5]) was “Not Active” each time. The IC50 in data set [6] (read-out: IC50) is 28.4 µM. Besides, the Ki result in data set [4] is on record as “Not Active”.

Consider `COc1cc2c(c3oc(=O)c4c(c13)CCC4=O)[C@@H]1C=CO[C@@H]1O2` [AFLATOXIN], for which the IC50 entry (in data set [1]; in data set [2]; in data set [3]; in data set [4]; against Cathepsin G; in data set [5]) was “Not Active” in each case. For the same compound, the IC50 result in data set [6] (reticulocytes) is reported as “Not Active”. Besides, the Ki entry (in data set [1]; in data set [2]; in data set [3]; in data set [4]; at Cathepsin G; in data set [5]) was “Not Active” in each case. Further, the Ki entry in data set [6] (reticulocytes) is listed as “Not Active”.

For `N=C(N)NC(=O)c1nc(Cl)c(N)nc1N` [AMILORIDE], the IC50 result (in data set [1]; in data set [2]; in data set [3]; in data set [4]; at Cathepsin G; in data set [5]) was “Not Active” each time. Moreover, the IC50 result in data set [6] (reticulocytes) is given as “Not Active”. In addition, the Ki entry in data set [4] is recorded as “Not Active”.

Consider `Cc1cc(=O)n(-c2ccccc2)n1C` [ANTIPYRINE], for which the IC50 entry (in data set [1]; in data set [2]; in data set [3]; in data set [4]; against Cathepsin G; in data set [5]) was “Not Active” in each case. The IC50 entry in data set [6] (reticulocytes) is on record as “Not Active”. Further, the Ki result in data set [4] is on record as “Not Active”.

Turning to `CN1C(=O)COc2c(C(=O)NC3CN4CCC3CC4)cc(Cl)cc21` (stereo not given) [AZASETRON], the IC50 result (in data set [1]; in data set [2]; in data set [3]; in data set [4]; at Cathepsin G; in data set [5]) was “Not Active” throughout. Further, the IC50 result in data set [6] (reticulocytes) was “Not Active”. Besides, the Ki result in data set [4] is listed as “Not Active”.

For `C[C@H]1C[C@H]2[C@@H]3CCC4=CC(=O)C=C[C@]4(C)[C@@]3(Cl)[C@@H](O)C[C@]2(C)[C@@]1(O)C(=O)CO` [BECLOMETHASONE], the IC50 entry (in data set [1]; in data set [2]; in data set [3]; in data set [4]; at Cathepsin G; in data set [5]) was “Not Active” throughout. In addition, in data set [6] (reticulocytes), the IC50 result is reported as “Not Active”. The Ki entry in data set [4] is “Not Active”.

As for `CCOC(=O)[C@H](CCc1ccccc1)N[C@H]1CCc2ccccc2N(CC(=O)O)C1=O` [BENAZEPRIL], the IC50 entry (in data set [1]; in data set [2]; in data set [3]; in data set [4]; against Cathepsin G; in data set [5]) was “Not Active” in each case. In addition, the IC50 entry in data set [6] (reticulocytes) is “Not Active”. The Ki entry in data set [4] is listed as “Not Active”.

Take `CCCCN1CCCCC1C(=O)Nc1c(C)cccc1C.Cl` (stereo not given) [BUPIVACAINE HYDROCHLORIDE]: the IC50 entry (in data set [1]; in data set [2]; in data set [3]; in data set [4]; against Cathepsin G; in data set [5]) was “Not Active” each time. In addition, the IC50 result in data set [6] (reticulocytes) was “Not Active”. The Ki result in data set [4] is recorded as “Not Active”.

As to `O=C1CC2(CCCC2)CC(=O)N1CCCCN1CCN(c2ncccn2)CC1` [BUSPIRONE], the IC50 entry (in data set [1]; in data set [2]; in data set [3]; in data set [4]; on Cathepsin G; in data set [5]) was “Not Active” each time. In addition, the IC50 entry in data set [6] (reticulocytes) was “Not Active”. Besides, in data set [4], the Ki entry is reported as “Not Active”.

`C[C@@]12C(=O)OC(=O)[C@]1(C)[C@H]1CC[C@@H]2O1` [CANTHARIDIN]: the IC50 entry (in data set [1]; in data set [2]; in data set [3]; in data set [4]; against Cathepsin G; in data set [5]) was “Not Active” in each case. In addition, in data set [6] (reticulocytes), the IC50 result is on record as “Not Active”. The Ki result in data set [4] is reported as “Not Active”.

For the compound `O=NN(CCCl)C(=O)NCCCl` [CARMUSTINE], the IC50 result (in data set [1]; in data set [2]; in data set [3]; in data set [4]; against Cathepsin G; in data set [5]) was “Not Active” each time. The IC50 entry in data set [6] (reticulocytes) was “Not Active”. Further, the Ki entry in data set [4] is on record as “Not Active”.

For the compound `ClC(Cl)Cl` [CHLOROFORM], the IC50 result (in data set [1]; in data set [2]; in data set [3]; in data set [4]; on Cathepsin G; in data set [5]) was “Not Active” in each case. The IC50 result in data set [6] (reticulocytes) is on record as “Not Active”. Also, the Ki entry in data set [4] is “Not Active”.

As to `C=C1CC[C@H](O)C/C1=C/C=C1\CCC[C@]2(C)[C@@H]([C@H](C)CCCC(C)C)CC[C@@H]12` [CHOLECALCIFEROL], the IC50 entry (in data set [1]; in data set [2]; in data set [3]; in data set [4]; against Cathepsin G; in data set [5]) was “Not Active” each time. The IC50 result in data set [6] (reticulocytes) is reported as “Not Active”. For the same compound, the Ki entry in data set [4] was “Not Active”.

`C[N+](C)(C)CCO.[Cl-]` [CHOLINE CHLORIDE]: the IC50 result (in data set [1]; in data set [2]; in data set [3]; in data set [4]; against Cathepsin G; in data set [5]) was “Not Active” each time. Further, in data set [6] (reticulocytes), the IC50 entry is recorded as “Not Active”. In data set [4], the Ki result is recorded as “Not Active”.

On to `CCOC(=O)C(C)(C)Oc1ccc(Cl)cc1` [CLOFIBRATE], for which the IC50 entry (in data set [1]; in data set [2]; in data set [3]; in data set [4]; against Cathepsin G; in data set [5]) was “Not Active” in each case. The IC50 result in data set [6] (reticulocytes) is given as “Not Active”. Also, in data set [4], the Ki result is on record as “Not Active”.

For the compound `CC(=O)OCC(=O)[C@@]1(O)CC[C@H]2[C@@H]3CCC4=CC(=O)CC[C@]4(C)[C@H]3C(=O)C[C@@]21C` [CORTISONE ACETATE], the IC50 result (in data set [1]; in data set [2]; in data set [3]; in data set [4]; at Cathepsin G; in data set [5]) was “Not Active” each time. Further, in data set [6] (reticulocytes), the IC50 entry is recorded as “Not Active”. Further, the Ki entry in data set [4] is on record as “Not Active”.

As for `O=c1ccc2ccccc2o1` [COUMARIN], the IC50 result (in data set [1]; in data set [2]; in data set [3]; in data set [4]; against Cathepsin G; in data set [5]) was “Not Active” in each case. The IC50 entry in data set [6] (reticulocytes) was “Not Active”. Also, the Ki entry in data set [4] is on record as “Not Active”.
